Earlier results on four compounds are cited in US11591601B2, “Methods for identification and modification of lncRNA associated with target genotypes and phenotypes” (The Broad Institute, Inc., priority 2017, dated 2023).

The subject of this data set is Factor VII. The settings on record: hepatocytes in vivo, Factor VII gene silencing model.
For “1,2-dilinoleyloxy-keto-N,N-dimethyl-3-aminopropane [DLinKDMA]”, the “gene silencing potency series of LNP siRNA systems containing the lipid” value (shortened to “gene silencing potency series”) was “DLinKC2-DMA>DLinKDMA>DLinDMA>>DLinDAP”. On to `CCCCC/C=C\C/C=C\CCCCCCCCOCC(CN(C)C)OCCCCCCCC/C=C\C/C=C\CCCCC` (stereo not shown) [DLinDMA, 1,2-dilinoleyloxy-3-N,N-dimethylaminopropane], for which the “gene silencing potency series” value is given as “DLinKC2-DMA>DLinKDMA>DLinDMA>>DLinDAP”. As for `CCCCC/C=C\C/C=C\CCCCCCCC(=O)OCC(CN(C)C)OC(=O)CCCCCCC/C=C\C/C=C\CCCCC` (stereo not shown) [DLinDAP, 1,2-dilineoyl-3-dimethylammonium-propane], the “gene silencing potency series” value is recorded as “DLinKC2-DMA>DLinKDMA>DLinDMA>>DLinDAP”. `CCCCC/C=C\C/C=C\CCCCCCCCC1(CCCCCCCC/C=C\C/C=C\CCCCC)OCC(CCN(C)C)O1` (stereo not shown) [DLinKC2-DMA, 1,2-dilinoleyl-4-(2-dimethylaminoethyl)[1,3]-dioxolane]: the “gene silencing potency series” value is “DLinKC2-DMA>DLinKDMA>DLinDMA>>DLinDAP”.
